Data: paper PMC3082566, “PTB Domain-Directed Substrate Targeting in a Tyrosine Kinase from the Unicellular Choanoflagellate Monosiga brevicollis” (PLoS ONE, 2011)
Entries after “also recorded” stand apart in the source; their conditions may differ.

Assays:
[1] = tested on: SYF cells; test: Anti-phosphotyrosine Western blotting of SYF cell lysates; format: cell-based, mammalian; conditions: 0.1 or 1.0 mM sodium orthovanadate, 20 minutes, 37°C; Fig. S4B
Method: SYF cells were cultured in Dulbecco's modified Eagle's medium (Mediatech, Inc.) supplemented with 10% fetal bovine serum (Sigma) and 1000 UI/ml penicillin, 1000 UI/ml streptomycin and 25 ng/ml amphotericin B (Mediatech, Inc.). SYF cells (2.25×10^6) were plated in 15-cm diameter dishes and transfected after 24 hours using 5–15 µg of DNA and 2 µl TransIT per µg DNA. After 48 hours, the cells were harvested, washed twice with PBS and lysed using radioimmune precipitation assay (RIPA) buffer (50 mM Tris-HCl pH 7.4, 150 mM NaCl, 5 mM EDTA, 1% sodium deoxycholate, 1% Nonidet P-40) supplemented with the protease inhibitors leupeptin (10 µg/ml), aprotinin (10 µg/ml), PMSF (200 µM) and the phosphatase inhibitors Na3VO4 (0.2 mM) and NaF (10 mM). Lysates (50 µg) were separated by 10% SDS-PAGE, transferred to PVDF membranes and probed with the appropriate antibodies. For immunoprecipitation, cell lysates (100 µg) were incubated overnight at 4°C with 40 µl of EZview red anti-Flag M2 affinity gel pre-equilibrated with RIPA buffer in a total volume of 1 ml. The immunocomplexes were washed 4 times, eluted from the beads by adding Laemmli buffer, separated by SDS-PAGE, transferred to PVDF membranes and probed with the appropriate antibodies.
Whole cell lysates were analyzed by SDS-PAGE and Western blotting with anti-pTyr, anti-FLAG, or anti-tubulin antibodies, as indicated. […]

[2] = tested on: isolated HMTK1 PTB domain; test: Pulldown of isolated HMTK1 PTB domain with immobilized pYEEI peptide; format: binding, Monosiga brevicollis; conditions: 8 µg PTB domain, 50 µl immobilized peptide, 1 hour at 4°C; anti-GST Western; Fig. 3B
Method: HMTK1 was expressed in Spodoptera frugiperda (Sf9) insect cells using the Bac-to-Bac system (Invitrogen). Sf9 cells (800 ml) were infected with HMTK1 baculovirus and harvested after three days. Cells were lysed in a French pressure cell, and His-tagged HMTK1 was purified using nickel-nitrilotriacetic acid resin (Qiagen), as described previously. Peak fractions were pooled and concentrated in an Amicon Ultrafiltration device (molecular weight cutoff: 30,000 daltons). The purified protein was stored in 40% glycerol at −20°C. The isolated PTB domain of HMTK1 was produced as a fusion with glutathione S-transferase (GST). E. coli cells (1 liter) expressing the GST fusion protein were lysed in a French pressure cell, and the GST-PTB protein was purified by chromatography on a glutathione-agarose column (Molecular Probes).
The PTB ligand-containing peptide, Phe-containing PTB control, and pYEEI peptide (EPQpYEEIG) were linked to Affi-Gel 15 resin (Bio-Rad) following the manufacturer's protocols. […]
(§1) Figure 3 Binding reactions with pYEEI-containing peptide. […] Bound proteins were eluted with SDS-PAGE sample buffer and analyzed by gel electrophoresis with Coomassie blue staining. […] After washing, bound proteins were eluted with SDS-PAGE sample buffer and analyzed by Western blotting with anti-GST antibody. […] After washing, bound proteins were analyzed by anti-FLAG Western blotting. […]

[3] = tested on: FLAG-tagged ΔPTB HMTK1; test: Pulldown of FLAG-tagged ΔPTB HMTK1 from SYF cell lysates with immobilized pYEEI; format: binding, Monosiga brevicollis; conditions: immobilized peptide; anti-FLAG Western; Fig. 3C
Method: (§2) For expression in insect cells, HMTK1 DNA (encoding residues 341–761) was cloned into the EcoRI site of pFastbac-Hta (Invitrogen). FLAG-tagged HMTK1 was expressed in mammalian cells by subcloning into the BglII and BamHI sites of p3XFLAG-CMV (Sigma). The ΔPTB version of this construct was prepared by PCR amplification and subsequent recloning into the BamHI and EcoRI sites of p3XFLAG-CMV. Site-directed mutagenesis of FLAG-HMTK1 was carried out using the QuikChange kit (Stratagene). To express the isolated third PTB domain (residues 341–474) in bacterial cells, this PCR fragment was cloned into the EcoRI site of plasmid pGEX-4T-1 (GE Healthcare). All constructs were confirmed by DNA sequencing.
(§3) The PTB ligand-containing peptide, Phe-containing PTB control, and pYEEI peptide (EPQpYEEIG) were linked to Affi-Gel 15 resin (Bio-Rad) following the manufacturer's protocols. Purified HMTK1 or the isolated PTB domain were incubated for 1 hour at 4°C with the immobilized peptides. […]
as §1

[4] = tested on: FLAG-tagged wild-type HMTK1; test: Pulldown of FLAG-tagged wild-type HMTK1 from SYF cell lysates with immobilized peptides; format: binding, Monosiga brevicollis; conditions: immobilized peptide; anti-FLAG Western; Fig. 3C
Method: as §2, §3, §1

[5] = tested on: c-Src; test: Binding of purified Src to immobilized pYEEI peptide; conditions: positive control; 20 µg protein, 30 µl immobilized peptide, 1 hour at 4°C; Coomassie; Fig. 3A
Method: (§4) The PTB ligand-containing peptide, Phe-containing PTB control, and pYEEI peptide (EPQpYEEIG) were linked to Affi-Gel 15 resin (Bio-Rad) following the manufacturer's protocols. Purified HMTK1 or the isolated PTB domain were incubated for 1 hour at 4°C with the immobilized peptides. After binding, the beads were washed 4 times with 1 ml of binding buffer (50 mM Tris-HCl pH 7.5, 5 mM EDTA, 100 mM NaCl, 0.1% Triton X-100, 1 mM DTT, 0.5 mM Na3VO4). Bound proteins were eluted with SDS-PAGE loading buffer, separated by 10% SDS-PAGE, and visualized either by Coomassie blue staining or by Western blotting.
(§5) Figure 3 Binding reactions with pYEEI-containing peptide. (A). Purified HMTK1 or c-Src (20 µg) were mixed with 30 µl of immobilized pYEEI peptide (pY) or control resin (C) in total volumes of 175 µl for 1 hour at 4°C. After binding, the resins were washed 4 times with 200 µl of binding buffer. Bound proteins were eluted with SDS-PAGE sample buffer and analyzed by gel electrophoresis with Coomassie blue staining. (B). The isolated HMTK1 PTB domain (8 µg) was incubated with 50 µl of immobilized pYEEI peptide (pY) or control resin (C) in total volumes of 400 µl for 1 hour at 4°C. After washing, bound proteins were eluted with SDS-PAGE sample buffer and analyzed by Western blotting with anti-GST antibody. (C). […] After washing, bound proteins were analyzed by anti-FLAG Western blotting. […]

[6] = tested on: HMTK1; test: Binding of purified HMTK1 to immobilized pYEEI peptide; design: species or system Monosiga brevicollis; conditions: 20 µg protein, 30 µl immobilized peptide, 1 hour at 4°C; Coomassie; Fig. 3A
Method: as §4, §5

[7] = tested on: HMTK1 PTB domain; test: Peptide array (PepSpots) probed with biotinylated HMTK1 PTB domain; format: binding, Monosiga brevicollis; conditions: 10 µg/ml PTB, 5% BSA, 20 mM Hepes pH 7.3, 30 min at room temperature; streptavidin-HRP chemiluminescence; Fig. 4A
From the text: The PTB domain of HMTK1 was cloned as an EcoR1 fragment into a modified pGEX (GE Healthcare Life Sciences) bicistronic vector pGEX-4T-BiotinN to express the gene of interest and the biotin ligase (BirA) in the same cell ([19]; Chan et al., in press). […] The resulting pGEX-BiotinN-PTB construct was transformed into E. coli BL21(DE3) cells for expression. GST-biotin-PTB protein was purified using glutathione-agarose and desalted using a PD-10 (GE Healthcare) gel filtration column.
N-terminally acetylated 11-residue peptides were synthesized using standard chemistry in situ (PepSpots) on cellulose based matrix (Jerini Biotools). To ensure protein accessibility, each peptide contained a 4-residue spacer consisting of a glycine and 3 β-alanines. All peptides were immobilized via their C-termini. […] Prior to usage, peptide array membranes were washed in binding buffer (20 mM Hepes pH 7.3, 137 mM NaCl, 5 mM KCl, 0.05% Tween-20) and blocked with 5% filtered bovine serum albumin in the same buffer. […] After washing in binding buffer (3×10 min), bound PTB was detected using enhanced chemiluminescence and standard X-ray film.
Figure 4 Peptide array experiment. […] Bound PTB domain was detected using streptavidin-HRP and enhanced chemiluminescence. […]

[8] = tested on: HMTK1; test: Substrate targeting: phosphorylation of PTB ligand-containing substrate and control by HMTK1; format: biochemical, Monosiga brevicollis; conditions: 30 µM peptide, 300 nM HMTK1, 20 mM Tris-HCl pH 7.4, 10 mM MgCl2, 0.2 mM ATP, Fig. 5B
Method: Kinase assays were performed by two methods. Initial activity measurements were performed by the phosphocellulose paper binding assay. Reaction mixtures contained 20 mM Tris-HCl (pH 7.4), 10 mM MgCl2, 0.2 mM ATP, [γ-^32P]-ATP (30–50 cpm/pmol), and varying amounts of HMTK1 and peptide substrates. All peptide substrates were purified by high pressure liquid chromatography and characterized by mass spectrometry prior to use. The following substrates were used: c-Src peptide, […]; MbSTAT peptide, […]; RTKB2 peptide 1, […]; RTKB2 peptide 2, […]; SH2 binding substrates (varying linker lengths), […]pYEEIG, […]pYEEIG, and […]pYEEIG; SH2 control substrate, […]. […] Kinetic constants were determined by nonlinear fitting to the [substrate] vs. velocity curves using GraphPad Prism 4.
Figure 5 Substrate targeting by PTB ligand. […] After washing, bound proteins were eluted with SDS-PAGE sample buffer and analyzed by Western blotting with anti-His6-tag antibody. (B) The kinase activity of HMTK1 (300 nM) toward the PTB ligand-containing substrate or PTB control substrate (shown schematically) was determined using the phosphocellulose paper assay. […] Incorporation of ^32P into the peptides was determined by scintillation counting.

[9] = tested on: HMTK1; test: Steady-state kinetics, continuous spectrophotometric assay; format: biochemical, Monosiga brevicollis; conditions: HMTK1 0.3–0.5 µM, peptide 0–700 µM, 100 mM Tris pH 7.4, 10 mM MgCl2, 2 mM ATP, 30°C
Method: Kinase assays were performed by two methods. Initial activity measurements were performed by the phosphocellulose paper binding assay. Reaction mixtures contained 20 mM Tris-HCl (pH 7.4), 10 mM MgCl2, 0.2 mM ATP, [γ-^32P]-ATP (30–50 cpm/pmol), and varying amounts of HMTK1 and peptide substrates. All peptide substrates were purified by high pressure liquid chromatography and characterized by mass spectrometry prior to use. The following substrates were used: c-Src peptide, […]; MbSTAT peptide, […]; RTKB2 peptide 1, […]; RTKB2 peptide 2, […]; SH2 binding substrates (varying linker lengths), […]pYEEIG, […]pYEEIG, and […]pYEEIG; SH2 control substrate, […]. Initial rate kinetic measurements on the PTB ligand-containing substrate ([…]pYATLG) and on the Phe-containing PTB control ([…]) were carried out using a continuous spectrophotometric assay. Reactions were performed at 30°C in a final volume of 50 µl. The reactions contained 100 mM Tris pH 7.4, 10 mM MgCl2, 2 mM ATP, 1.5 mM phosphoenolpyruvate, 90 units/ml of pyruvate kinase, 109 units/ml of lactate dehydrogenase, and 1.2 mg/ml of NADH. For determination of Km values, the enzyme concentrations were 0.3–0.5 µM and the peptide concentrations ranged from 0–700 µM. Kinetic constants were determined by nonlinear fitting to the [substrate] vs. velocity curves using GraphPad Prism 4.

[10] = tested on: Hck; conditions: Src family kinase Hck with the same peptide; ref [24]; cited from earlier work
From the text: We selected a pair of peptides for further study. […] We synthesized an individual peptide in which the sequence NFTNPVpYATG was connected to a tyrosine kinase substrate sequence.

[11] = tested on: HMTK1; test: Binding of purified HMTK1 to immobilized PTB ligand peptides; design: species or system Monosiga brevicollis; conditions: 6.6 µg HMTK1; peptide on Affi-Gel resin; 1 hour at 4°C; anti-His6 Western; Fig. 5A
Method: as §4
Figure 5 Substrate targeting by PTB ligand. (A) Purified HMTK1 (6.6 µg) was incubated with PTB ligand-containing substrate ([…]pYATLG), PTB control substrate ([…]), pYEEI peptide, or control resin in final volumes of 60 µl. After washing, bound proteins were eluted with SDS-PAGE sample buffer and analyzed by Western blotting with anti-His6-tag antibody. (B) The kinase activity of HMTK1 (300 nM) toward the PTB ligand-containing substrate or PTB control substrate (shown schematically) was determined using the phosphocellulose paper assay. The reaction contained 20 mM Tris-HCl (pH 7.4), 10 mM MgCl2, 0.2 mM ATP, 30 µM peptide, and [γ-^32P]-ATP. […] Incorporation of ^32P into the peptides was determined by scintillation counting.

sodium orthovanadate
overall phosphorylation in SYF cells [1]: enhanced overall phosphorylation

EPQpYEEIG [Src SH2 ligand peptide linked to Affi-Gel 15 resin]
binding to isolated HMTK1 PTB domain [2]: pYEEI-binding activity was localized to the PTB domain; also recorded: bound
binding to ΔPTB HMTK1 (SYF lysate) [3]: did not
binding to wild-type HMTK1 (SYF lysate) [4]: bound
binding to purified Src [5]: bound
binding to purified HMTK1 [6]: bound

TNFTNPVYATLG
binding of biotinylated PTB domain to array peptides, phosphorylated vs unphosphorylated [7]: bound much more strongly in the phosphorylated state

KKAEEEIYGEFEANFTNPVpYATLG [pTyr peptide]
phosphorylation by HMTK1 compared to Phe control ([8]; listed as pTyr-containing peptide): preferentially phosphorylated
phosphorylation by HMTK1 compared to Phe control ([8]; listed as synthetic peptide containing this sequence (with pTyr)): phosphorylated more efficiently
Vmax [9]: 4.9 µmol/min/mg enzyme
Km ([9]; nonlinear fitting): 33 µM
Vmax (Hck) [10]: 3.0 µmol/min/mg enzyme
binding to purified HMTK1 [11]: bound
